In article PMC10106456 (Communications Biology, 2023):
Values joined by “and” are separate entries in the source; they are usually repeats but may differ in a detail not shown here. Equal values may be shown once. Read-outs that look alike come from different tables or passages of the source.

Experiments:
[1] = system: E. coli DH5αZ1 + pZE24-tet(X6); experiment: Microbroth dilution antibiotic susceptibility test (MIC); type: cell-based; details: Escherichia coli
Method: (§1) For high expression, 1 mM IPTG fully relieves repression by LacI[44] thus only IPTG was used in whole-cell tests. Chemically-competent E. coli DH5αZ1 (Expressys) was transformed with these pZE24 constructs by heat shock. Minimum inhibitory concentrations (MICs) were measured as per Clinical and Laboratory Standards Institute (CLSI) guidelines. Substrates and inhibitors were dissolved in DMSO (20 mg/mL) then diluted to working concentrations in cation-adjusted Mueller-Hinton II broth supplemented with 50 μg/mL kanamycin (Supplementary Data 2). Antibiotic susceptibility testing panels were prepared in 96-well flat-bottom microplates (Corning) by two-fold serial dilution of the antibiotic of interest (Supplementary Data 3). […] Liquid cultures of each strain were grown to exponential phase then diluted to a standard concentration (OD600 = 0.0015, which is equivalent to double ~5 × 10^5 CFU/mL) and inoculated into each panel at a 1:1 ratio. […] Each strain-antibiotic/inhibitor combination was tested in triplicate, along with no-drug and no-cell controls. Inoculated panels were sealed with Breathe-Easy membranes (Sigma-Aldrich) and incubated at 37 °C for 20 h. MICs were scored by absorbance measurements at 600 nm (OD600) using the Synergy H1 microplate reader (Biotek Instruments, Inc).

[2] = system: E. coli DH5αZ1 + pZE24 (empty); experiment: as above; type: cell-based; details: Escherichia coli, 20 h, drug alone
Method: as §1

[3] = system: E. coli DH5αZ1 + pZE24-tet(X7); experiment: as above; type: cell-based; details: Escherichia coli, 20 h
Method: as §1

[4] = system: CN(C)c1cc(NC(=O)CNC(C)(C)C)c(O)c2c1C[C@H]1C[C@H]3[C@H](N(C)C)C(O)=C(C(N)=O)C(=O)[C@@]3(O)C(O)=C1C2=O; experiment: purified protein, by the assay type; details: pH 8.5
[5] = system: CN(C)[C@@H]1C(O)=C(C(N)=O)C(=O)[C@@]2(O)C(O)=C3C(=O)c4c(O)c(NC(=O)CN5CCCC5)cc(F)c4C[C@H]3C[C@@H]12; experiment: purified protein, by the assay type; details: pH 8.5
[6] = system: CN(C)[C@@H]1C(O)=C(C(N)=O)C(=O)[C@@]2(O)C(O)=C3C(=O)c4c(O)cccc4[C@@](C)(O)[C@H]3C[C@@H]12; experiment: purified protein, by the assay type; details: other: compound as substrate of Tet(X6), Michaelis-Menten fit, pH 8.5
[7] = system: Cc1c2c(c(O)c3c(O)cccc13)C(=O)[C@]1(O)C(=O)C(C(N)=O)=C(O)[C@@H](N(C)C)[C@@H]1C2; experiment: purified protein, by the assay type; details: other: compound as substrate of Tet(X6), Michaelis-Menten fit, pH 8.5
[8] = system: [H][C@@]12Cc3c(N(C)C)cc(CNCC(C)(C)C)c(O)c3C(=O)C1=C(O)[C@]1(O)C(=O)C(C(N)=O)=C(O)[C@@H](N(C)C)[C@]1([H])C2; experiment: purified protein, by the assay type; details: pH 8.5
[9] = target: Tet(X6) (Proteus genomosp. 6, UniProt A0A6I7DAX3); details: for Michaelis-menten nonlinear fit, best-fit Kcat / Michaelis-menten nonlinear fit, best-fit Vmax: supplementary source data; for Michaelis-menten nonlinear fit, best-fit Vmax: Tet(X6) 0.4 µM; for Sigmoidal curve fit, best-fit Kprime / Sigmoidal curve fit, best-fit Vmax / Sigmoidal curve fit, best-fit h / Sigmoidal curve fit, best-fit Khalf: allosteric sigmoidal model, Supplementary Data 1; for Sigmoidal curve fit, best-fit Khalf: [Sub] in μM
Method: All experiments were prepared open to air in non-degassed buffer solutions at room temperature. […] Initial enzyme velocities were determined by linear regression using Agilent Cary WinUV Software over the linear range of the reaction (typically between 0 to 1 min), plotted against the concentration of the substrate, and fitted to the Michaelis–Menten or allosteric sigmoidal nonlinear regression equations using GraphPad Prism 6.

[10] = system: Tet(X2); details: surface-localized single point mutation; cited from earlier work
[11] = other: compound as substrate of Tet(X6), Michaelis-Menten fit
[12] = other: supplementary source data, [Sub] in μM
[13] = [Sub] 1.96581 μM, trials 1-3, absorbance 400 nm
[14] = [Sub] 3.93162 μM, trials 1-3, absorbance 400 nm
[15] = [Sub] 5.89744 μM, trials 1-3, absorbance 400 nm
[16] = [Sub] 7.86325 μM, trials 1-3, absorbance 400 nm
[17] = [Sub] 9.82906 μM, trials 1-3, absorbance 400 nm
[18] = [Sub] 20.641 μM, trials 1-3, absorbance 400 nm
[19] = [Sub] 30.4701 μM, trials 1-3, absorbance 400 nm
[20] = [Sub] 3.8961 μM, trials 1-3, absorbance 400 nm (440 nm for aTC)
[21] = [Sub] 6.16883 μM, trials 1-3, absorbance 400 nm (440 nm for aTC)
[22] = [Sub] 8.11688 μM, trials 1-3, absorbance 400 nm (440 nm for aTC)
[23] = [Sub] 10.0649 μM, trials 1-3, absorbance 400 nm
[24] = [Sub] 29.8701 μM, trials 1-3, absorbance 400 nm (440 nm for aTC)

Sequence of Tet(X6) (A0A6I7DAX3 entry or part of it): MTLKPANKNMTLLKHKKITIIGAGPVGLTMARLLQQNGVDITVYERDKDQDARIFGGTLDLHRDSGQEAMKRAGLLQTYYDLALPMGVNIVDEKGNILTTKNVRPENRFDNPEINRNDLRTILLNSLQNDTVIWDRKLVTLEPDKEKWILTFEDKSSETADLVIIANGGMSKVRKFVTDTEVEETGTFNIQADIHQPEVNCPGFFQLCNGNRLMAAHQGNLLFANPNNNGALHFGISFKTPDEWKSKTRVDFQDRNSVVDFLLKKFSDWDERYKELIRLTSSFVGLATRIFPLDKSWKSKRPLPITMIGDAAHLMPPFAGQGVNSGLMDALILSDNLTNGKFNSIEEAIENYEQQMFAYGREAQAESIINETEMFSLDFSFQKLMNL

C[C@H]1c2cccc(O)c2C(=O)C2=C(O)[C@]3(O)C(=O)C(C(N)=O)=C(O)[C@@H](N(C)C)[C@@H]3[C@@H](O)[C@@H]21 [DOX, doxycycline]
MIC ([1]; 20 h): 32 µg/mL
MIC [2]: 1 µg/mL
MIC [3]: 16 µg/mL

Tet(X6) (Proteus columbae)
Km [4, 11]: 12 µM
kcat [4, 11]: 0.00267 ± 0.00033 s⁻¹
kcat/Km [4, 11]: 217 ± 67 M⁻¹ s⁻¹
Km [4, 12]: 11.8 µM and 11.1 µM
Km [5, 11]: 47 µM
kcat [5, 11]: 0.0083 ± 0.0017 s⁻¹
kcat/Km [5, 11]: 183 ± 67 M⁻¹ s⁻¹
Km [5, 12]: 46.6 µM
kcat [6]: 0.00433 ± 0.00017 s⁻¹
Km [7]: 6 µM
kcat/Km [7]: 200 ± 50 M⁻¹ s⁻¹
Km [8, 11]: 18 µM
kcat [8, 11]: 0.00333 ± 0.00033 s⁻¹
kcat/Km [8, 11]: 183 ± 50 M⁻¹ s⁻¹
Km [8, 12]: 18.4 µM

CN(C)[C@@H]1C(O)=C(C(N)=O)C(=O)[C@@]2(O)C(O)=C3C(=O)c4c(O)ccc(Cl)c4[C@@](C)(O)[C@H]3C[C@@H]12 [CTC, chlortetracycline]
MIC [1]: 128 µg/mL
MIC [2]: 2 µg/mL
MIC [3]: 32 µg/mL

CN(C)c1cc(NC(=O)CNC(C)(C)C)c(O)c2c1C[C@H]1C[C@H]3[C@H](N(C)C)C(O)=C(C(N)=O)C(=O)[C@@]3(O)C(O)=C1C2=O [TIG, tigecycline]
MIC ([1]; 20 h): 4 µg/mL
MIC [2]: 0.5 µg/mL
MIC [3]: 2 µg/mL
Slope (initial velocity of substrate degradation) [9, 13]: 0.00897 and 0.01087 and 0.008562
Slope (initial velocity of substrate degradation) [9, 14]: 0.01529 and 0.0186 and 0.0147
Slope (initial velocity of substrate degradation) [9, 15]: 0.02792 and 0.01914 and 0.0183
Slope (initial velocity of substrate degradation) [9, 16]: 0.03155 and 0.02526 and 0.02718
Slope (initial velocity of substrate degradation) [9, 17]: 0.02741 and 0.02394 and 0.02598
Slope (initial velocity of substrate degradation) [9, 18]: 0.03075 and 0.05034 and 0.0363
Slope (initial velocity of substrate degradation) [9, 19]: 0.05374 and 0.04632 and 0.03822
Michaelis-menten nonlinear fit, best-fit Kcat [9]: 0.1574
Michaelis-menten nonlinear fit, best-fit Vmax [9]: 0.06296 and 0.06154

CN(C)c1cc(CNCC(C)(C)C)c(O)c2c1C[C@H]1C[C@H]3[C@H](N(C)C)C(O)=C(C(N)=O)C(=O)[C@@]3(O)C(O)=C1C2=O [OMA, omadacycline]
MIC ([1]; 20 h): 64 µg/mL
MIC [2]: 2 µg/mL
MIC [3]: 16 µg/mL
Slope (initial velocity of substrate degradation) ([9]; [Sub] 1.94805 μM, trials 1-3, absorbance 400 nm (440 nm for aTC)): 0.0061 and 0.0058 and 0.0045
Slope (initial velocity of substrate degradation) [9, 20]: 0.0076
Slope (initial velocity of substrate degradation) [9, 21]: 0.0203 and 0.0178 and 0.0171
Slope (initial velocity of substrate degradation) [9, 22]: 0.0286 and 0.0269 and 0.0241
Slope (initial velocity of substrate degradation) [9, 23]: 0.0336 and 0.0293 and 0.0307
Slope (initial velocity of substrate degradation) [9, 24]: 0.0474 and 0.044 and 0.0515
Sigmoidal curve fit, best-fit Kprime [9]: 61.85
Sigmoidal curve fit, best-fit Vmax [9]: 0.05144
Sigmoidal curve fit, best-fit h [9]: 1.97
Sigmoidal curve fit, best-fit Khalf [9]: 8.114
Michaelis-menten nonlinear fit, best-fit Kcat [9]: 0.1969
Michaelis-menten nonlinear fit, best-fit Vmax [9]: 0.07875

CN(C)c1ccc(O)c2c1C[C@H]1C[C@H]3[C@H](N(C)C)C(O)=C(C(N)=O)C(=O)[C@@]3(O)C(O)=C1C2=O [minocycline]
reduction of apparent Km by point mutation Thr280Ala in Tet(X2) [10]: two-fold

CN(C)[C@@H]1C(O)=C(C(N)=O)C(=O)[C@@]2(O)C(O)=C3C(=O)c4c(O)cccc4[C@@](C)(O)[C@H]3C[C@@H]12 [TET, tetracycline]
MIC [2]: 1 µg/mL
MIC [3]: 32 µg/mL
Slope (initial velocity of substrate degradation) [9, 13]: 0.0375 and 0.04014 and 0.02364
Slope (initial velocity of substrate degradation) [9, 14]: 0.04215 and 0.04584 and 0.0387
Slope (initial velocity of substrate degradation) [9, 15]: 0.05933 and 0.04704 and 0.05922
Slope (initial velocity of substrate degradation) [9, 16]: 0.06246 and 0.0528 and 0.05754
Slope (initial velocity of substrate degradation) [9, 17]: 0.05855 and 0.06072 and 0.05694
Slope (initial velocity of substrate degradation) [9, 18]: 0.07878 and 0.08328 and 0.07938
Slope (initial velocity of substrate degradation) [9, 19]: 0.0879 and 0.09378 and 0.09744
Michaelis-menten nonlinear fit, best-fit Kcat [9]: 0.2636
Michaelis-menten nonlinear fit, best-fit Vmax [9]: 0.1054 and 0.1047

CN(C)[C@@H]1C(O)=C(C(N)=O)C(=O)[C@@]2(O)C(O)=C3C(=O)c4c(O)c(NC(=O)CN5CCCC5)cc(F)c4C[C@H]3C[C@@H]12 [ERA, eravacycline]
MIC ([1]; 20 h): 8 µg/mL
MIC [2]: 0.25 µg/mL
MIC [3]: 4 µg/mL
Slope (initial velocity of substrate degradation) [9, 20]: 0.0062 and 0.0046 and 0.0039
Slope (initial velocity of substrate degradation) [9, 21]: 0.0169 and 0.0106 and 0.0133
Slope (initial velocity of substrate degradation) [9, 22]: 0.0312 and 0.0317 and 0.0293
Slope (initial velocity of substrate degradation) [9, 23]: 0.0442 and 0.0406 and 0.047
Slope (initial velocity of substrate degradation) ([9]; [Sub] 20.1299 μM, trials 1-3, absorbance 400 nm (440 nm for aTC)): 0.0511 and 0.0571 and 0.0722
Slope (initial velocity of substrate degradation) [9, 24]: 0.0798 and 0.0764 and 0.0969
Slope (initial velocity of substrate degradation) ([9]; [Sub] 64.9351 μM, trials 1-2, absorbance 400 nm): 0.1162 and 0.1096
Sigmoidal curve fit, best-fit Kprime [9]: 84.21
Sigmoidal curve fit, best-fit Vmax [9]: 0.1315
Sigmoidal curve fit, best-fit h [9]: 1.474
Sigmoidal curve fit, best-fit Khalf [9]: 20.22
Michaelis-menten nonlinear fit, best-fit Kcat [9]: 0.5027
Michaelis-menten nonlinear fit, best-fit Vmax [9]: 0.2011
